Results on 5 compounds are retold here after ChEMBL document CHEMBL1144677, “Novel quinazolinone derivatives as 5-HT7 receptor ligands” (Bioorg Med Chem, 2008).

One may read the pIC50 as the IC50 on a negative log10 scale, so that one unit is a factor of ten. Read a high pIC50 as a small IC50.

Test [1] has as its target 5-hydroxytryptamine receptor 2A (Homo sapiens, UniProt P28223).
Description: Binding affinity at 5HT2A receptor
In test [2] the target is T1, 5-hydroxytryptamine receptor 1A (Homo sapiens, UniProt P08908).
T1 sequence (P08908 whole entry): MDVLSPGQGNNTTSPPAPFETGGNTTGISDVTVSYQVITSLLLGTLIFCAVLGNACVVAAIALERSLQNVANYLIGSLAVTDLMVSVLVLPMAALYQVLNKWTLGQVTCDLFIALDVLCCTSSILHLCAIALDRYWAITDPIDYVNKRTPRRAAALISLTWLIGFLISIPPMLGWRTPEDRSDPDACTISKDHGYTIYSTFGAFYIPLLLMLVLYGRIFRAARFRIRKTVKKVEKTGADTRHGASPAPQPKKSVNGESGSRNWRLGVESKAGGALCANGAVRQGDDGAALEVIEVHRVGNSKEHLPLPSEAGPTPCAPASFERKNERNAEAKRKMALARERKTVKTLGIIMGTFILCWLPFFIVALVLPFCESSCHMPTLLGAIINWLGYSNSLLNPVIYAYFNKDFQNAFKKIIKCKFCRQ
Description: Binding affinity at 5HT1A receptor

Test [3] deals with T2, 5-hydroxytryptamine receptor 2C (Homo sapiens, UniProt P28335).
T2 sequence (P28335 whole entry): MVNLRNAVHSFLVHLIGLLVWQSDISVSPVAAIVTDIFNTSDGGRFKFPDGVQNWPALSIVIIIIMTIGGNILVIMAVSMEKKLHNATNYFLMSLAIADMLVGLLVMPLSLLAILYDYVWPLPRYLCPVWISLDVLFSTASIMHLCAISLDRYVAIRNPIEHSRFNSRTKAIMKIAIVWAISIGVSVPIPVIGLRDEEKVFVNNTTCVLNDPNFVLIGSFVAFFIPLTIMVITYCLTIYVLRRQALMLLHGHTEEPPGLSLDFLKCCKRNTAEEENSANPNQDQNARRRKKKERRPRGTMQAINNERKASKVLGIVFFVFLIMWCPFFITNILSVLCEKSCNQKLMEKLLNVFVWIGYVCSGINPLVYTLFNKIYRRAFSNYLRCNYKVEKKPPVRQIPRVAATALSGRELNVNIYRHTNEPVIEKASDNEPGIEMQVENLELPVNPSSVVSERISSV
Description: Binding affinity at 5HT2C receptor

Test [4] deals with D(2) dopamine receptor (Homo sapiens, UniProt P14416).
Chain of D(2) dopamine receptor (P14416 whole entry): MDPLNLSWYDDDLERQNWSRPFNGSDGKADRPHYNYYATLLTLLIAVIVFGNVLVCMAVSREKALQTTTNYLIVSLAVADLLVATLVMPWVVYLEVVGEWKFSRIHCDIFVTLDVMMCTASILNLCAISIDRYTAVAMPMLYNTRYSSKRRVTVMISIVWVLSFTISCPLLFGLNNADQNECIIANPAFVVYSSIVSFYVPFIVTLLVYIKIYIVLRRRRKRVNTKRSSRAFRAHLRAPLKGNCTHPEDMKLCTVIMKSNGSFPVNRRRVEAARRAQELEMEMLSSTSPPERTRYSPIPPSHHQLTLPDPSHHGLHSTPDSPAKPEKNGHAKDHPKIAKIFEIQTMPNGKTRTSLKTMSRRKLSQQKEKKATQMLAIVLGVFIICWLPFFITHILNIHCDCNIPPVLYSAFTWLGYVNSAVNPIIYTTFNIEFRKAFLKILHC
Description: Binding affinity at dopamine D2 receptor

Structures are written as SMILES. pIC50: −log10 of the molar value.

Chain of 5-hydroxytryptamine receptor 2A (P28223 whole entry): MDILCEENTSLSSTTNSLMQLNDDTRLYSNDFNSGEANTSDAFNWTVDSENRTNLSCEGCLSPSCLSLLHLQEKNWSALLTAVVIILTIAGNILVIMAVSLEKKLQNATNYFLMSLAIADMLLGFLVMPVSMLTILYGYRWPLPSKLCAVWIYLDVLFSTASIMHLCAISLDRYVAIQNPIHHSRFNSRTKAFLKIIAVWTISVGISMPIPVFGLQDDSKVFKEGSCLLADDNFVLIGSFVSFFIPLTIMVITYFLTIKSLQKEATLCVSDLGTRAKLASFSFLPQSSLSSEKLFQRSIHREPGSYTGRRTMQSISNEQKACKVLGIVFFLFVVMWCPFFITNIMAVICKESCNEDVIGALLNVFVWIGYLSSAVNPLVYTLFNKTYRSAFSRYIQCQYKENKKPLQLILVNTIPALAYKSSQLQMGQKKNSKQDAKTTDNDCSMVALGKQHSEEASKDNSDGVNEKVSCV

For the compound `CCOc1ccccc1N1CCN(CCCC(=O)NCc2nc3ccc(F)cc3c(=O)n2-c2ccccc2)CC1`, the pIC50 in test [1] is less than 5.00; in test [2] it was 6.30; in test [3] it was 5.80; in test [4] it was 6.00.
Consider `Cc1cccc(N2CCN(CCCC(=O)NCc3nc4ccc(F)cc4c(=O)n3-c3ccccc3)CC2)c1C`, for which the pIC50 in test [1] was 6.38; in test [2] it was 6.66; in test [3] it was 7.10; in test [4], 5.40.
With `O=C(CCCN1CCN(c2cccc(C(F)(F)F)c2)CC1)NCc1nc2cc(F)ccc2c(=O)n1-c1ccccc1`, the pIC50 was 6.21 in test [1], 6.85 in test [2], 5.89 in test [3] and 5.18 in test [4].
On to `COc1ccccc1N1CCN(CCCC(=O)NCc2nc3ccc(F)cc3c(=O)n2-c2ccccc2)CC1`, for which the negative logarithm of the IC50 (pIC50) was less than 5.00 in test [1], 6.02 in test [2], 6.66 in test [3] and 5.28 in test [4].
Regarding `Cc1cccc(N2CCN(CCCC(=O)NCc3nc4ccccc4c(=O)n3-c3ccccc3)CC2)c1C`, the pIC50 was 5.96 in test [1], 6.30 in test [2] and 5.16 in test [4].
